Values belong to the molecule of their own block, whether it stands above or below them.
Columns and labels:
hEAG2 = biological target: T1, hEAG2 (Homo sapiens, UniProt Q8NCM2); assay: Whole cell electrophysiology of hEAG2 and GFP cotransfected CHO cells; assay type: cell-based
T1 construct: The complete open reading frame of HEAG2 cDNA was cloned into an Invitrogen native expression Gateway entry vector; expressed in transfected cells; host or cells: CHO cells, transient co-transfection with GFP DNA (Lipofectamine Plus)
T1 sequence (Q8NCM2 1-988): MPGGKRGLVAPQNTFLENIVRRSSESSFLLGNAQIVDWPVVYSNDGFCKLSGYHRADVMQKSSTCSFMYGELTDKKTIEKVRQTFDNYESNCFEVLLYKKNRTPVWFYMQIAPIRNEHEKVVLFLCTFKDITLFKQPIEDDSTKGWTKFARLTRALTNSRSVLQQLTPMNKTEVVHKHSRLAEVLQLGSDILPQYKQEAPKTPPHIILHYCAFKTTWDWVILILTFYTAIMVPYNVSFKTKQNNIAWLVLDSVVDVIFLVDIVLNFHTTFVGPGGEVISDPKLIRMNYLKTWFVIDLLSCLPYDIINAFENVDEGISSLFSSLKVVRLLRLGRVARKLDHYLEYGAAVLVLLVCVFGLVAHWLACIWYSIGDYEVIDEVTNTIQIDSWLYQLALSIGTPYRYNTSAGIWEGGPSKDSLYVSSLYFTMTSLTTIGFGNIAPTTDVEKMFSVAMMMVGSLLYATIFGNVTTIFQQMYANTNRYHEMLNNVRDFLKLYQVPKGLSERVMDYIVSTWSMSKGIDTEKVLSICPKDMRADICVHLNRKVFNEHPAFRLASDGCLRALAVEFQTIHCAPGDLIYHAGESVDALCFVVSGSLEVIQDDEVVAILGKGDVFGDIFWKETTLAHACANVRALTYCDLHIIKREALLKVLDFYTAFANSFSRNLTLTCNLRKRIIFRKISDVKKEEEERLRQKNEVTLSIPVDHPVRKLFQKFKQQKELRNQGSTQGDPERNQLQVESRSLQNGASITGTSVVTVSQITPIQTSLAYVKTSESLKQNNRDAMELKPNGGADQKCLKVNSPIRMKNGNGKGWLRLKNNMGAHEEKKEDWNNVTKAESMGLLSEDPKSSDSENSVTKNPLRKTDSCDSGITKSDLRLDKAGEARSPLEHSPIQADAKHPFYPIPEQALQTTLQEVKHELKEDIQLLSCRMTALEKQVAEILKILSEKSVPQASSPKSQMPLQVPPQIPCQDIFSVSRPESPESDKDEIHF
Description: CHO cells were plated in growth medium at 10% (1.2×10^5 cells/dish) and 20% (2.4×10^5 cells/dish) confluence in poly-lysine coated 35 mm dishes. After 24 hours, the growth medium was removed, and cells were rinsed with Optimem (Invitrogen # 31985-070), then refed 0.8 ml Optimem. Cells were transiently co-transfected with 0.5 ug hEAG2 DNA in the pDEST vector, and 0.5 ug of GFP DNA using Lipofectamine Plus (Invitrogen # 10964-013). Three hours post transfection, the transfection mix was removed, and cells were refed with 2 ml growth medium. Twenty four hours post transfection, cells were again refed 2 ml fresh growth medium. Cells were used in experiments 24-72 hrs post transfection. Control experiments were performed in CHO cells transiently transfected with 1 μg of GFP DNA. CHO growth medium is Iscove's medium (Invitrogen #12440)+10% FBS, 1× non-essential amino acids(Invitrogen #12383-014) and 1× HT Supplement (Invitrogen #11067-030). All chemicals were purchased from Sigma Chemicals, St. Louis Mo. The internal solution contained (in mM): KCl 130, MgCl2 1, CaCl2 1, HEPES 10, EGTA 10, and was titrated to a pH of 7.2. […] The bath solution contained (in mM) NaCl 140, KCl 4, MgCl2 1, CaCl2 1.8, HEPES 10, Glucose 10, and was titrated to a pH of 7.4. For some experiments the bath solution was modified by the addition of 1 or 5 mM BaCl2, by changing the concentration of MgCl2 to 0 or 10 mM or by reducing NaCl to 104 mM and increasing KCl to 40 mM. During data recording, cells were constantly superfused with bath solution delivered through a fused silica perfusion tip, internal diameter […]. Solution changes were accomplished through the use of a […]16 multichannel perfusion system from AutoMate Scientific, San Francisco Calif. Currents were recorded on an EPC-9 amplifier (HEKA Electronik, Lambrecht/Pfalz, Germany), controlled through the Pulse software package. Currents were sampled at 10 kHz and filtered at 3.3 kHz. Pipettes were constructed from thin walled borosilicate capillary tubing (Warner Instruments Corp., Hamden Conn.), and pulled to a resistance of 1.5-3 MΩ on a P-97 micropipette puller (Sutter Instrument Co., Novato Calif.). All experiments were conducted at 20° C. Following the establishment of a Gigaohm seal and whole cell access, cells were held at -80 mV. […] All stimulation protocols were applied at 0.1 Hz.

[1] = picogram quantities, female recipients; cited from earlier work
Eag proteins = conditions: intracellular Ca++; read-out: half-maximal inhibition concentration; cited from earlier work
Human lung fibroblasts = assay: Human lung fibroblast proliferation assay (Alamar Blue); assay type: cell-based; conditions: 3 days in basal medium
Description: Human lung fibroblasts are obtained from Clonetics (San Diego, Calif.) and maintained in growth media from Clonetics. Dermal microvascular endothelial cells are obtained from Cell Applications (San Diego, Calif.). For proliferation assays, the human lung fibroblasts and dermal microvascular endothelial cells can be cultured at 5,000 cells/well in a 96-well plate for one day in growth medium. The cells are then incubated for one day in 0.1% BSA basal medium. After replacing the medium with fresh 0.1% BSA medium, the cells are incubated with the test proteins for 3 days. Alamar Blue (Alamar Biosciences, Sacramento, Calif.) is added to each well to a final concentration of 10%. The cells are incubated for 4 hr. Cell viability is measured by reading in a CytoFluor fluorescence reader. For the PGE2 assays, the human lung fibroblasts are cultured at 5,000 cells/well in a 96-well plate for one day. […]

[2] = test system: nigral dopaminergic neurons; conditions: gel foam implants in the striatum; cited from earlier work

activation rate of the current (hEAG2; Mg^++ free bath (MgCl2 0 mM)): much faster | activation rate of the current (hEAG2; increased bath Mg^++ (MgCl2 10 mM)): dramatically slowed
Molecule: [Mg+2] [Mg^++, MgCl2]

Molecule: C[C@@]12C=CC[C@H]1[C@@H]1CCC3=CC(=O)CC[C@]3(C)[C@H]1CC2 [androstadienone]
nervousness, tension and other negative feelings [1]: significant reduction

Molecule: [Ca+2] [Ca++]
IC50 (Eag proteins): ~100 nM

Molecule: FGF-2: Fibroblast growth factor 2 (basic FGF), comparator protein for the polypeptides of the invention
stimulation of growth of human lung fibroblasts, concentration showing stimulation (Human lung fibroblasts): 10 to 2500 ng/mL | protection of nigral dopaminergic neurons from toxicity associated with MPTP exposure [2]: near complete protection

tail reversal potential (hEAG2; increased extracellular K^+ (KCl 40 mM, NaCl 104 mM)): approximately −40 mV
Molecule: [K+] [K^+, KCl]

Molecule: [Ba+2].[Cl-].[Cl-] [Ba^++, BaCl2]
steady state current (hEAG2; addition of Ba^++ to the extracellular solution (bath + 1 or 5 mM BaCl2), depolarization to +40 mV for 1 sec, 20° C): apparent reduction

— patent publication US20030114354A1, “Polynucleotide encoding a novel potassium channel with homology to the ether-a-go-go family, HEAG2” (priority 2001, published 2003)
